{"source": "patent US12391666B2", "about": "“Indoline-1-formamide compound, preparation method therefor, and medical use thereof” (Beijing Innocare Pharma Tech Co., Ltd., priority 2018, dated 2025)", "assay_type_in_all_cases": "biochemical", "key": {"[1]": {"target": "VEGFR1 (Homo sapiens (Human), UniProt P17948)", "sequence (P17948 27-1338)": "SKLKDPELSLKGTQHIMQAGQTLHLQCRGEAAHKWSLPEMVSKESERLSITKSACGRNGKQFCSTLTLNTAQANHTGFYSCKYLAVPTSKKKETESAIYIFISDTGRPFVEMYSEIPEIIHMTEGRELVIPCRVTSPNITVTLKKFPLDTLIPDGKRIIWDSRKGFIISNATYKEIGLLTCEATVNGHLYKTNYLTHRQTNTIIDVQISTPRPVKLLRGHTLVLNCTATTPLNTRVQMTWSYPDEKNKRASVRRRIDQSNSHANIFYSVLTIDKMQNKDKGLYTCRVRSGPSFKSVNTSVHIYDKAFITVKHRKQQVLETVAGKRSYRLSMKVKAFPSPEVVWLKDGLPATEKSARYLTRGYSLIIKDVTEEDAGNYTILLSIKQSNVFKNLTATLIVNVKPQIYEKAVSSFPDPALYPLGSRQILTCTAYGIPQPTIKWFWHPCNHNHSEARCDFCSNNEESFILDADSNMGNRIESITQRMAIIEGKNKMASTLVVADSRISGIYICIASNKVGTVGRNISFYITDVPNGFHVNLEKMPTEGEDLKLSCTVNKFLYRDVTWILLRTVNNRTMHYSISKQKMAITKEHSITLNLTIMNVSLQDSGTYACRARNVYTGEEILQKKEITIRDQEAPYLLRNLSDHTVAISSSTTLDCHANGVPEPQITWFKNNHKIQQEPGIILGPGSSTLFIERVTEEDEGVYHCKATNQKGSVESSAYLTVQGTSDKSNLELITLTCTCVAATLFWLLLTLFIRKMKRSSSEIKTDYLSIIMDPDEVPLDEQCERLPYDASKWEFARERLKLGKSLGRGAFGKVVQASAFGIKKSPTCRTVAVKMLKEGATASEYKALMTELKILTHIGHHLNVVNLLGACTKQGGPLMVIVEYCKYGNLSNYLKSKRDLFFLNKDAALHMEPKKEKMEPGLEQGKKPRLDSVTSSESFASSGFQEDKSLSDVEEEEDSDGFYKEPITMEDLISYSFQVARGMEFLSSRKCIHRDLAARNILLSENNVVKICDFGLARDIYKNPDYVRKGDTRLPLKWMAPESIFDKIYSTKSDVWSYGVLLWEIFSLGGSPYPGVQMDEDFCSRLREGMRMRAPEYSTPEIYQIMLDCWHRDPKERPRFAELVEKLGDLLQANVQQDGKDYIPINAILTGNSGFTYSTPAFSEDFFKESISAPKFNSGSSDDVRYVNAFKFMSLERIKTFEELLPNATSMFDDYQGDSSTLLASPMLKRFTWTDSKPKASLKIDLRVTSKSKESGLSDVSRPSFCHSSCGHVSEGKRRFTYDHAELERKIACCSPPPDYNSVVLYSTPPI", "assay": "VEGFR1 activity inhibition testing (HTRF in vitro kinase assay)", "conditions": "humanized recombinant VEGFR1 protein, 0.8 μM ATP", "procedure": "VEGFR1 Activity Inhibition Testing\nAn in vitro kinase assay was used to evaluate the effect of the compounds of the present invention on VEGFR1 activity.\n(§1) The experimental method is summarized as follows:\nThe in vitro activity of VEGFR1 was determined by detecting the phosphorylation level of the substrate in the kinase reaction using a homogeneous time-resolved fluorescence (HTRF) kinase detection kit (Cisbio, catalog number 62TKOPEC). The reaction buffer contains an enzyme reaction buffer (1×) provided in the kit, 5 mM MgCl2, 1 mM MnCl2, 1 mM DTT. […]\n4 μL of Compound solution and 2 μL of VEGFR1 kinase solution were added to a 384-well detection plate (Corning, catalog number 4512), mixed uniformly and incubated at room temperature for 15 minutes. […] Then 10 μL of the assay buffer equal to the volume of the reaction was added, mixed uniformly and allowed to stand at room temperature for 30 minutes, and then the reaction progress was detected with an Envision plate reader (Perkin Elmer) at wavelengths of 620 nm and 665 nm. […] The inhibition percentage of the compound on VEGFR1 activity can be calculated using the following equation: Percentage of inhibition=100−100*(signal value of test compound at a specific concentration−signal value of negative control)/(signal value of positive control−signal value of negative control) […]"}, "[2]": {"target": "VEGFR2 (Homo sapiens (Human), UniProt P35968)", "sequence (P35968 20-1356)": "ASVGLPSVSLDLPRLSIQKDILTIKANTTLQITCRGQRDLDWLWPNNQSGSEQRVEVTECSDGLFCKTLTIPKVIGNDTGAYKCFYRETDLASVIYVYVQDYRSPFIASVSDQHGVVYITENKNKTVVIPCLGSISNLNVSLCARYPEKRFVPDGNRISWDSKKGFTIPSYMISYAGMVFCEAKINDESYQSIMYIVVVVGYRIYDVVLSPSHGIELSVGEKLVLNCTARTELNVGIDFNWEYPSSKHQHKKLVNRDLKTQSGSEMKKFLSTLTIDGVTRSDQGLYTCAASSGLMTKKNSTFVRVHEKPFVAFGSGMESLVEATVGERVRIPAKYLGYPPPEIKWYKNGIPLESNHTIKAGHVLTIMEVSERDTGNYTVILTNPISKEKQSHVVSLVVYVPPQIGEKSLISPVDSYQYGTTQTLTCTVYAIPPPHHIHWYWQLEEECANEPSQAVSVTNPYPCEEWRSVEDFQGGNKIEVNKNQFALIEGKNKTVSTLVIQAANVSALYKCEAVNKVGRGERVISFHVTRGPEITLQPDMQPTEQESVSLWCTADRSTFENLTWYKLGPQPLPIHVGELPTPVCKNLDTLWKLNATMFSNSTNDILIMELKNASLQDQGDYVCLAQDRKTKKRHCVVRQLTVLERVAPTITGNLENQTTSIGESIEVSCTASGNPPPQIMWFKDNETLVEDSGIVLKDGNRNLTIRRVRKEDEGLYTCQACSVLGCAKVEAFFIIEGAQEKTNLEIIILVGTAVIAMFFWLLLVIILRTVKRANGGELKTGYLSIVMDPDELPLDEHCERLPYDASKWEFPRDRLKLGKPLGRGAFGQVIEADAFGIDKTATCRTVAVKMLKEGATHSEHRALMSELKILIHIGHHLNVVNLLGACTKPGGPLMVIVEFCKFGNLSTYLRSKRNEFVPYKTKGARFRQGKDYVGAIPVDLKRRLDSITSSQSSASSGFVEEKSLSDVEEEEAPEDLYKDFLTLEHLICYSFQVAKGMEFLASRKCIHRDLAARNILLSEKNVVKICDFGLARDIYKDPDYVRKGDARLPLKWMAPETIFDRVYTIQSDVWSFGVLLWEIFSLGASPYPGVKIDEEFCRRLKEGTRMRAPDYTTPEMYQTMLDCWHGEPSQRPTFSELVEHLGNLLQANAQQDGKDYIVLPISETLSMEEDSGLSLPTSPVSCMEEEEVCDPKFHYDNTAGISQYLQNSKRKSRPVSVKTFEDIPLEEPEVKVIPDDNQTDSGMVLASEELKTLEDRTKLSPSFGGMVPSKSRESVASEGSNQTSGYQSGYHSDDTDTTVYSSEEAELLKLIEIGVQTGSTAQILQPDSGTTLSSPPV", "assay": "VEGFR2 activity inhibition testing (HTRF in vitro kinase assay)", "conditions": "humanized recombinant VEGFR2 protein, 3.5 μM ATP", "procedure": "(§2) The IC50 value of the compound is calculated from 8 concentration points with the XLfit (ID Business Solutions Ltd., UK) software through the following equation: Y=Bottom+(Top−Bottom)/(1+10^((log IC50−X)*slope factor)) • where Y is the inhibition percentage, X is the logarithm of the concentration of the test compound, Bottom is the maximum inhibition percentage, Top is the minimum inhibition percentage, and slope factor is the slope coefficient of the curve. VEGFR2 Activity Inhibition Testing\nAn in vitro kinase assay was used to evaluate the effect of the compounds of the present invention on VEGFR2 activity.\nas §1\nThe in vitro activity of VEGFR2 was determined by detecting the phosphorylation level of the substrate in the kinase reaction using a homogeneous time-resolved fluorescence (HTRF) kinase detection kit (Cisbio, catalog number 62TKOPEC). The reaction buffer contains an enzyme reaction buffer (1×) provided in the kit, 5 mM MgCl2, 1 mM MnCl2, 1 mM DTT, 0.01% BSA and 0.005% Tween 20. The humanized recombinant VEGFR2 protein (Cat. No. 10012-H20B1) was purchased from Sino Biological Inc., and diluted to a 0.3 ng/μL kinase solution with the reaction buffer. The substrate reaction solution includes 0.3 μM biotin-labeled tyrosine kinase substrate and 3.5 μM ATP which were diluted with the reaction buffer. The assay buffer includes 0.1 ng/μL Eu^3+ labeled cage antibody and 18.75 nM streptavidin labeled XL665 (Cisbio, catalog number 610SAXLB) which were diluted with the reaction buffer.\nThe compound was dissolved and diluted to 10 μM in 100% DMSO, then a 4-fold serial dilution was performed with DMSO to the lowest concentration of 0.61 nM, and each concentration point was diluted 40-fold with the reaction buffer.\n4 μL of Compound solution and 2 μL of VEGFR2 kinase solution were added to a 384-well detection plate (Corning, catalog number 4512), mixed uniformly and incubated at room temperature for 15 minutes. Then 4 μL of the substrate reaction solution was added, and the reaction mixture was incubated at room temperature for 30 minutes. Then 10 μL of the assay buffer equal to the volume of the reaction was added, mixed uniformly and allowed to stand at room temperature for 30 minutes, and then the reaction progress was detected with an Envision plate reader (Perkin Elmer) at wavelengths of 620 nm and 665 nm. The ratio of 665/620 is positively correlated with the phosphorylation degree of the substrate, thereby detecting the activity of VEGFR2 kinase. In this experiment, the group without VEGFR2 kinase protein was used as a negative control (100% inhibition), and the group with VEGFR2 kinase protein but no compound was used as a positive control (0% inhibition). The inhibition percentage of the compound on VEGFR2 activity can be calculated using the following equation: Percentage of inhibition=100−100*(signal value of test compound at a specific concentration−signal value of negative control)/(signal value of positive control—signal value of negative control)\nas §2, with “VEGFR3” for “VEGFR2”"}, "[3]": {"target": "VEGFR3 (Homo sapiens (Human), UniProt P35916)", "sequence (P35916 25-1363)": "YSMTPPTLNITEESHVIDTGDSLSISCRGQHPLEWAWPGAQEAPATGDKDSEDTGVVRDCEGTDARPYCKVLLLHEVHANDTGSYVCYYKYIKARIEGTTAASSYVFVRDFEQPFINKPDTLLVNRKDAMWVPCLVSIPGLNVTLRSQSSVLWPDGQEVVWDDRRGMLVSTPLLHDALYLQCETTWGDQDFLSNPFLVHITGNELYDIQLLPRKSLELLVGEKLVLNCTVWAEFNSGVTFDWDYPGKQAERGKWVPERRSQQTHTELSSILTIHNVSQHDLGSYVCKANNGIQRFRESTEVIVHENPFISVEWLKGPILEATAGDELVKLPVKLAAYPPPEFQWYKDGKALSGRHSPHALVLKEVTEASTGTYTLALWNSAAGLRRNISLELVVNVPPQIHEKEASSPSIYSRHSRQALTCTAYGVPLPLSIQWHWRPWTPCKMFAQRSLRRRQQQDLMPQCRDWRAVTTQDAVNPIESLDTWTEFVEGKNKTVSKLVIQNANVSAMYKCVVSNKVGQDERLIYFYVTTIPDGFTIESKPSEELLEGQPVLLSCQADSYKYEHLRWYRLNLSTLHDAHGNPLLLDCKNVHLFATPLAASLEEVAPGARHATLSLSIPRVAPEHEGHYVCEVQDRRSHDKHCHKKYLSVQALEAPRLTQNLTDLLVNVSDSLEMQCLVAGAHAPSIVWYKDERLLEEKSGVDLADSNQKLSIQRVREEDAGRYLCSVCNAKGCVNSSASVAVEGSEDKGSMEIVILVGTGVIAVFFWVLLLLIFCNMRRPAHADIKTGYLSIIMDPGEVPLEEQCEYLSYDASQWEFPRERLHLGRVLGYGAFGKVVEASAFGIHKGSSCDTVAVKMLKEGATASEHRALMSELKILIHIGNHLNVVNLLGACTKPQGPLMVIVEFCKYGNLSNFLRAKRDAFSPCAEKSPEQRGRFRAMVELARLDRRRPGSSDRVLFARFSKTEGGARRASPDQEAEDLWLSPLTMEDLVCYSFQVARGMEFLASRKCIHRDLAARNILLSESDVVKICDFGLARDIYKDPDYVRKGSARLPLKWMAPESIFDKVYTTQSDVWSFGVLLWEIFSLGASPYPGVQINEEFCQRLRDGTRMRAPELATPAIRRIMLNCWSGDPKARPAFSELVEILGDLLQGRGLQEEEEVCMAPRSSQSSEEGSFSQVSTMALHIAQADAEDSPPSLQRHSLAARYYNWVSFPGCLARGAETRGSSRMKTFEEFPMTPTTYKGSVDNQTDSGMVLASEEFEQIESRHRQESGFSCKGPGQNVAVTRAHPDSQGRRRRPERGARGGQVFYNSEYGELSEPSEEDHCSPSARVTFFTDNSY", "assay": "VEGFR3 activity inhibition testing (HTRF in vitro kinase assay)", "conditions": "humanized recombinant VEGFR3 protein, 0.4 μM ATP", "procedure": "as §2, with “VEGFR3” for “VEGFR2”\nAn in vitro kinase assay was used to evaluate the effect of the compounds of the present invention on VEGFR3 activity.\nas §1\nThe in vitro activity of VEGFR3 was determined by detecting the phosphorylation level of the substrate in the kinase reaction using a HTRF kinase detection kit (Cisbio, catalog number 62TK0PEC). […]\n4 μL of Compound solution and 2 μL of VEGFR3 kinase solution were added to a 384-well detection plate (Corning, catalog number 4512), mixed uniformly and incubated at room temperature for 15 minutes. […] Then 10 μL of the assay buffer equal to the volume of the reaction was added, mixed uniformly and allowed to stand at room temperature for 30 minutes, and then the reaction progress was detected with an Envision plate reader (Perkin Elmer) at wavelengths of 620 nm and 665 nm. […]"}}, "data": [{"smiles": "COc1cc2nccc(Oc3ccc4c(c3)CCN4C(=O)NC3CC3)c2cc1C(N)=O", "note": "[Compound 1, 4-((1-(cyclopropylcarbamoyl)indolin-5-yl)oxy)-7-methoxyquinoline-6-carboxamide]", "values": [{"measurement": "IC50", "setting": "[1]", "value": "10 to 100", "unit": "nM"}, {"measurement": "IC50", "setting": "[2]", "value": "< 10", "unit": "nM"}, {"measurement": "IC50", "setting": "[3]", "value": "< 10", "unit": "nM"}]}, {"smiles": "NC(=O)c1cc2c(Oc3ccc4c(c3)CCN4C(=O)NC3CC3)ccnc2cc1O", "note": "[Compound 2, 4-((1-(cyclopropylcarbamoyl)indolin-5-yl)oxy)-7-hydroxyquinoline-6-carboxamide]", "values": [{"measurement": "IC50", "setting": "[2]", "value": "10 to 100", "unit": "nM"}]}, {"smiles": "CNC(=O)N1CCc2cc(Oc3ccnc4cc(OC)c(C(N)=O)cc34)ccc21", "note": "[Compound 3, 7-methoxy-4-((1-(methylcarbamoyl)indolin-5-yl)oxy)quinoline-6-carboxamide]", "values": [{"measurement": "IC50", "setting": "[2]", "value": "10 to 100", "unit": "nM"}]}, {"smiles": "COc1cc2nccc(Oc3ccc4c(c3)CCN4C(=O)Nc3ccc(F)cc3)c2cc1C(N)=O", "note": "[Compound 4, 4-((1-((4-fluorophenyl)carbamoyl)indolin-5-yl)oxy)-7-methoxyquinoline-6-carboxamide]", "values": [{"measurement": "IC50", "setting": "[2]", "value": "< 10", "unit": "nM"}]}, {"smiles": "COc1cc2nccc(Oc3ccc4c(c3)CCN4C(=O)NC3CC3)c2cc1OC", "note": "[Compound 5, N-cyclopropyl-5-((6,7-dimethoxyquinolin-4-yl)oxy)indoline-1-carboxamide]", "values": [{"measurement": "IC50", "setting": "[2]", "value": "10 to 100", "unit": "nM"}]}, {"smiles": "COc1cc2nccc(Oc3ccc4c(c3)CCN4C(=O)Nc3cc(C)on3)c2cc1C(N)=O", "note": "[Compound 6, 7-methoxy-4-((1-((5-methylisoxazol-3-yl)carbamoyl)indolin-5-yl)oxy)quinoline-6-carboxamide]", "values": [{"measurement": "IC50", "setting": "[2]", "value": "< 10", "unit": "nM"}]}]}
